Experimental data as given in US11319318B2, “Pyridinones and isoquinolinones as inhibitors of the bromodomain BRD9” (Boehringer Ingelheim International GmbH, priority 2015, dated 2022).

Molecular target: T1, bromodomain of BRD9 (GST-BRD9 aa 130-259) / H3 K9/14/18/23Ac(1-28) peptide (Homo sapiens, UniProt Q9H8M2)
T1 construct: The protein corresponding to amino acids 130-259 that contains the bromodomain of BRD9; made in house; host or cells: E. coli
T1 sequence (Q9H8M2 130-259): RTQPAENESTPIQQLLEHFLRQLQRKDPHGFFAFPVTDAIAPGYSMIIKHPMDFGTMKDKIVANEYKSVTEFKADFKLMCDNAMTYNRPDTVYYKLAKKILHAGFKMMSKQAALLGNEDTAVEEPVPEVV
Experiment: BRD9-H3 tetra-acetylated Peptide Inhibition AlphaScreen
Type: binding
From the text: Biological Methods BRD9-H3 tetra-acetylated Peptide Inhibition AlphaScreen
This assay is used to identify compounds which inhibit the interaction of the bromodomain of BRD9 with a tetra-acetylated peptide based on the sequence of histone H3 (H3 K9/14/18/23Ac (1-28)).
AlphaScreen Beads (Perkin Elmer):
AlphaLISA Glutathione Acceptor Beads
AlphaScreen Streptavidin Donor Beads
The assay is done in a darkened room below 100 Lux.
Compounds are dispensed onto assay plates using an Access Labcyte Workstation with the Labcyte Echo 550 from a DMSO solution. For the chosen highest concentration of 100 μM, 150 nl of compound solution are transferred from a 10 mM DMSO solution. […] DMSO is added such that every well has a total of 150 nl of DMSO.
After 60 min at room temperature the signal is measured in a PerkinElmer Envision HTS Multilabel Reader using the AlphaScreen specifications from PerkinElmer.
Each plate contains negative controls where biotinylated H3 K9/14/18/23Ac(1-28) peptide and GST-BRD9 are left out and replaced by assay buffer. Negative control values are entered as low basis value when using the software GraphPad Prism for calculations.

Compound	IC50 [nM]
Cc1cc(-c2ccc([C@@H](C)N3CCCC3)cc2)cn(C)c1=O [Compound I-1, 1,3-Dimethyl-5-[4-((R)-1-pyrrolidin-1-yl-ethyl)-phenyl]-1H-pyridin-2-one]	105
Cc1cc(-c2ccc([C@H](C)N3CCCC3)cc2)cn(C)c1=O [Compound I-2, 1,3-dimethyl-5-[4-((S)-1-pyrrolidin-1-yl-ethyl)-phenyl]-1H-pyridin-2-one]	145
Cc1cc(-c2ccc([C@H](C)N3CCCCC3)cc2)cn(C)c1=O [Compound I-3]	157
Cc1cc(-c2ccc([C@@H](C)N3CCCCC3)cc2)cn(C)c1=O [Compound I-4]	172
Cc1cc(-c2ccc(C(C)N3CCCC3)cc2)cn(C)c1=O (stereo not drawn) [Compound I-5]	137
Cc1cc(-c2ccc(C(C)N3CCCCC3)cc2)cn(C)c1=O (stereo not drawn) [Compound I-6]	318
Cc1cc(-c2ccc(S(=O)(=O)NCCN(C)C)c(OC(F)(F)F)c2)cn(C)c1=O [Compound I-7]	326
Cc1cc(-c2ccc(S(=O)(=O)N(C)C)cc2)cn(C)c1=O [Compound I-8]	976
Cc1cc(-c2ccc(C(C)N3CCOCC3)cc2)cn(C)c1=O (stereo not drawn) [Compound I-10]	1080
Cc1cc(-c2ccc(C(C)N(C)C)cc2)cn(C)c1=O (stereo not drawn) [Compound I-11]	1430
CNS(=O)(=O)c1ccc(-c2cc(C)c(=O)n(C)c2)cc1 [Compound I-12]	1550
Cc1cc(-c2ccc(S(=O)(=O)C(C)C)cc2)cn(C)c1=O [Compound I-13]	1590
Cc1cc(-c2cccc(CN(C)C)c2)cn(C)c1=O [Compound I-17]	2540
Cc1cc(-c2ccc(CN3CCN(C)CC3)cc2)c(C)n(C)c1=O [Compound I-21]	1690
Cc1c(-c2ccc(C(=O)N3CCNCC3)cc2)cc(I)c(=O)n1C [Compound I-22]	235
Cc1cc(-c2cccc(NS(C)(=O)=O)c2)cn(C)c1=O [Compound I-31, N-[3-(1,5-Dimethyl-6-oxo-1,6-dihydro-pyridin-3-yl)-phenyl]-methanesulfonamide]	1220
COc1cc(-c2cc(C)c(=O)n(C)c2)ccc1CN1CC(O)C1 [Compound I-47, 5-[4-(3-Hydroxy-azetidin-1-ylmethyl)-3-methoxy-phenyl]-1,3-dimethyl-1H-pyridin-2-one]	52
Cc1cc(-c2ccc3c(c2)CNC3)cn(C)c1=O [Compound I-49, 5-(2,3-dihydro-1H-isoindol-5-yl)-1,3-dimethyl-1H-pyridin-2-one]	65
COc1cc(-c2cc(C)c(=O)n(C)c2)ccc1CN1CC(OC)C1 [Compound I-50]	74
COc1cc(-c2cc(C)c(=O)n(C)c2)ccc1CN1C[C@@H]2CC1CN2C [Compound I-51]	78
COc1cc(-c2cc(C)c(=O)n(C)c2)cc(OC)c1CN1CCNCC1 [Compound I-52]	87

Compound	IC50 [nM]
COc1cc(-c2cc(C)c(=O)n(C)c2)ccc1C1(N(C)C)CC1 [Compound I-53]	97
COc1cc(-c2cc(C)c(=O)n(C)c2)ccc1CN1C[C@@H]2CC1CN2 [Compound I-54]	121
COc1cc(-c2cc(C)c(=O)n(C)c2)c(OC)cc1CN1CC(O)C1 [Compound I-55]	124
COc1cc(S(=O)(=O)N2CC(O)C2)c(OC)cc1-c1cc(C)c(=O)n(C)c1 [Compound I-56]	131
COc1cc(S(=O)(=O)NCCN(C)C)c(OC)cc1-c1cc(C)c(=O)n(C)c1 [Compound I-57]	132
Cc1cc(-c2ccc(C3(N(C)C)CC3)cc2)cn(C)c1=O [Compound I-58]	137
COCc1c(OC)cc(-c2cc(C)c(=O)n(C)c2)cc1OC [Compound I-59]	142
Cc1cc(-c2cc(C)c(=O)n(C)c2)ccc1C1(N(C)C)CC1 [Compound I-60]	143
CCC(CC)(c1ccc(-c2cc(C)c(=O)n(C)c2)cc1OC)N1CCN(C)CC1 [Compound I-61]	179
COc1cc(-c2cc(C)c(=O)n(C)c2)c(OC)cc1CN1CCN(C)CC1 [Compound I-62]	181
COc1cc(-c2cc(C)c(=O)n(C)c2)cc(OC)c1CN1CCN(C)CC1 [Compound I-63]	203
Cc1cc(-c2ccc(S(=O)(=O)N3CCNCC3)cc2)cn(C)c1=O [Compound I-64]	211
COc1cc(-c2cc(C)c(=O)n(C)c2)ccc1S(=O)(=O)NCCN(C)C [Compound I-65]	213
Cc1cc(-c2ccc(C3(N(C)C)CCC3)cc2)cn(C)c1=O [Compound I-66]	213
COc1cc(-c2cc(C)c(=O)n(C)c2)ccc1C1(N2CCN(C)CC2)CC1 [Compound I-67]	215
Cc1cc(-c2cc(C)c(=O)n(C)c2)ccc1S(=O)(=O)NCCN(C)C [Compound I-68]	223
COc1cc(S(=O)(=O)N2CCN(C)CC2)c(OC)cc1-c1cc(C)c(=O)n(C)c1 [Compound I-70]	237
CCc1cc(-c2cc(C)c(=O)n(C)c2)cc(OC)c1C(O)CC (stereo not drawn) [Compound I-71]	289
COc1cc(-c2cc(C)c(=O)n(C)c2)ccc1CN1C[C@H]2C[C@@H]1CN2C [Compound I-72]	335
Cc1cc(-c2ccc(C(=O)C3CCNCC3)cc2)cn(C)c1=O [Compound I-73]	361
COc1cc(-c2cc(C)c(=O)n(C)c2)ccc1S(=O)(=O)N1CC(O)C1 [Compound I-74]	371

Compound	IC50 [nM]
Cc1cc(-c2cc(C)c(=O)n(C)c2)ccc1S(=O)(=O)N1CC(O)C1 [Compound I-75]	393
COc1cc(-c2cc(C)c(=O)n(C)c2)ccc1C(=O)N1C[C@@H]2CC1CN2 [Compound I-76]	409
COc1cc(-c2cc(C)c(=O)n(C)c2)ccc1C(=O)N1C[C@@H]2CC1CN2C [Compound I-77]	418
CCOc1cc(-c2cc(C)c(=O)n(C)c2)ccc1CN1CC[N+](C)(CC)CC1 [Compound I-81]	502
COc1cc(-c2cc(C)c(=O)n(C)c2)ccc1S(=O)(=O)N1CCN(C)CC1 [Compound I-82]	515
Cc1cc(-c2cc(C)c(=O)n(C)c2)ccc1S(=O)(=O)N1CCN(C)CC1 [Compound I-83]	521
Cc1cc(-c2cc(C)c(=O)n(C)c2)ccc1C1(N2CCN(C)CC2)CC1 [Compound I-84]	618
Cc1cc(-c2ccc3c(c2)CCNC3)cn(C)c1=O [Compound I-85]	708
COc1cc(-c2cc(C)c(=O)n(C)c2)ccc1CN1CCN(C)C(C)C1 (stereo not drawn) [Compound I-86]	777
Cc1cc(-c2cccc(CN)c2)cn(C)c1=O [Compound I-87]	849
Cc1cc(-c2ccc3c(c2)CNCC3)cn(C)c1=O [Compound I-90]	950
Cc1cc(-c2cc(C)c(=O)n(C)c2)ccc1CN [Compound I-92]	1040
Cc1cc(-c2ccc(C3(N4CCN(C)CC4)CC3)cc2)cn(C)c1=O [Compound I-95]	1210
COc1cc(-c2cc(C)c(=O)n(C)c2)ccc1CN [Compound I-96]	1250
Cc1cc(-c2cccc(C3CCCCN3)c2)cn(C)c1=O (stereo not drawn) [Compound I-98]	2360
COc1cc(-c2cn(C)c(=O)c(C)c2C)cc(OC)c1CN1CC(O)C1 [Compound I-103]	37
COc1cc(-c2cn(C)c(=O)c(C)c2C)c(OC)cc1CN1CC(O)C1 [Compound I-104]	39
Cc1c(-c2ccc3c(c2)CNC3)cn(C)c(=O)c1C [Compound I-106]	103
COCc1c(OC)cc(-c2cn(C)c(=O)c(C)c2C)cc1OC [Compound I-107]	137
COc1cc(-c2cn(C)c(=O)c(C)c2C)ccc1CN1C[C@@H]2CC1CN2C [Compound I-108]	152
COc1cc(-c2cn(C)c(=O)c(C)c2C)ccc1CN1C[C@@H]2CC1CN2 [Compound I-109]	193

Compound	IC50 [nM]
COc1cc(S(=O)(=O)N(C)CCN(C)C)c(OC)cc1-c1cn(C)c(=O)c(C)c1C [Compound I-110]	197
COc1cc(-c2cn(C)c(=O)c(C)c2C)ccc1C1(N2CCN(C)CC2)CC1 [Compound I-111]	226
Cc1cc(-c2cn(C)c(=O)c(C)c2C)ccc1C1(N2CCN(C)CC2)CC1 [Compound I-112]	320
COc1cc(-c2cn(C)c(=O)c(C)c2C)ccc1CN1C[C@H]2C[C@@H]1CN2C [Compound I-113]	348
Cc1c(-c2ccc(C(=O)C3CCNCC3)cc2)cn(C)c(=O)c1C [Compound I-115]	740
Cc1c(-c2ccc3c(c2)CCNC3)cn(C)c(=O)c1C [Compound I-116]	744
Cc1cc(-c2cn(C)c(=O)c(C)c2C)ccc1C(=O)N1CCN(C)CC1 [Compound I-117]	1400
COc1cc(-c2cc(C)c(=O)n(C)c2C)cc(OC)c1CN1CC(O)C1 [Compound I-118]	10
COc1cc(-c2cc(C)c(=O)n(C)c2C)ccc1CN1CC(O)C1 [Compound I-119]	55
COc1cc(-c2cc(C)c(=O)n(C)c2C)ccc1C1(N(C)C)CCC1 [Compound I-121]	163
COc1cc(-c2cc(C)c(=O)n(C)c2C)ccc1C1(N(C)C)CC1 [Compound I-122]	116
COc1cc(-c2cc(C)c(=O)n(C)c2C)cc(OC)c1CN1CCNCC1 [Compound I-124]	144
COc1cc(S(=O)(=O)N(C)CCN(C)C)c(OC)cc1-c1cc(C)c(=O)n(C)c1C [Compound I-125]	166
Cc1cc(-c2ccc3c(c2)CNC3)c(C)n(C)c1=O [Compound I-126]	167
COc1cc(-c2cc(C)c(=O)n(C)c2C)ccc1CN1C[C@@H]2CC1CN2 [Compound I-127]	198
COc1cc(-c2cc(C)c(=O)n(C)c2C)ccc1CN1C[C@H]2C[C@@H]1CN2C [Compound I-128]	222
Cc1cc(-c2ccc(C(=O)C3CCNCC3)cc2)c(C)n(C)c1=O [Compound I-129]	284
COCc1c(OC)cc(-c2cc(C)c(=O)n(C)c2C)cc1OC [Compound I-130]	302
